# Measured values from paper PMC5365662, “A Short Double-Stapled Peptide Inhibits Respiratory Syncytial Virus Entry and Spreading” (Antimicrobial Agents and Chemotherapy, 2017).
# Bridge positions count the residues as written; N and C are the ends. Square brackets hold non-standard residues; d marks the D form. Peptide text beside a SMILES is read from it. R8 = C=CCCCCCC[C@@](C)(N)C(=O)O; R5 = C=CCCC[C@@](C)(N)C(=O)O; S5 = C=CCCC[C@](C)(N)C(=O)O
# Assays:
# [1] = target: 5HB, a recombinant protein containing 3 HR1 domains covalently attached to 2 HR2 domains; conditions: for Kd: competition with fluorescently labeled T108 probe (2 nM), 5HB 50 nM, 10 min preincubation + 30 min room temperature, duplicates
# Text: The RSV HR2 region (residues 476 to 524) is a 49-amino-acid sequence that has been extensively characterized (Fig. 1). HR2 is a largely unstructured peptide in aqueous solution folding into an α-helix upon binding to trimeric HR1 coiled coils ([20]). […] We reduced HR2 (aa 483 to 516) into three short overlapping subdomains (subdomains 1 to 3) (Fig. 1). These peptides were scanned for various stapling combinations. […] Far-UV circular dichroism (CD) spectropolarimetry was used to investigate the effect of stapling on the α-helical content of the peptides. […] To assess the propensity of the stapled peptides to hinder the formation of the postfusion six-helix bundle required for viral cell entry, we used a 5-helix bundle (5HB) biochemical fluorescence polarization (FP) competition assay as previously described ([21], [22]).
# The coding sequence of 5HB was designed as described previously and de novo synthesized by Genscript ([21]). The HR1 (aa 126 to 182) and HR2 (aa 476 to 524) coding sequences from wild-type RSV A2 strain F ([36]) were codon optimized for overexpression in Escherichia coli and cloned at NdeI/BamHI restriction sites of pET-15b to generate the expression plasmid for 5HB. The 5HB expression construct was transformed into Escherichia coli BL21(DE3). Cells were grown at 37°C to an optical density at 600 nm of 0.8 followed by induction with isopropyl-1-thio-β-D-galactopyranoside at a final concentration of 0.5 mM for 12 to 15 h. Cells were harvested by centrifugation, washed twice with PBS, and resuspended in 20 ml of PBS (pH 7.4), 500 mM NaCl, and 1% Triton X-100 supplemented with complete protease inhibitor. Cell suspensions were disrupted by sonication. Cell debris was removed through ultracentrifugation at 18,000 × g for 1 h at 4°C, and clarified cell lysate was mixed with 1 ml of nickel-nitrilotriacetic acid (Ni-NTA) agarose beads (Qiagen) preequilibrated with 20 ml of lysis buffer. The suspension was agitated for 1 h at 4°C and loaded onto a 5-ml polypropylene column (Qiagen). The column was washed twice with 8 ml of PBS (pH 7.4), 500 mM NaCl, 1% Triton X-100, and 100 mM imidazole. Proteins were eluted with 5 × 500 μl of a buffer containing PBS (pH 7.4), 300 mM imidazole, and 500 mM NaCl. The imidazole was removed by dialysis, and protein purity was assessed by SDS-polyacrylamide gel electrophoresis followed by Coomassie blue staining. Protein concentration was determined with the Qubit 2.0 Fluorometer (Life Technologies).
# The T108 ([12]) peptide probe was synthesized by standard SPPS procedures using HCTU as a coupling reagent as described above. A 10-μl volume of recombinant 5HB protein in FP buffer (20 mM PBS [pH 7.4], 500 mM NaCl, 0.01% [vol/vol] Tween 20, and 0.05 mg/ml bovine gamma globulin) was preincubated for 10 min at room temperature with 10 μl of the appropriate concentration of the inhibitor, after which 10 μl of fluorescein isothiocyanate (FITC)-T106 was added and further incubated for 30 min at room temperature. The final concentrations of protein and probe were 50 nM and 2 nM, respectively. The fluorescence polarization assay was performed in 384-well plates using a Spectramax Paradigm (Molecular Devices), using excitation and emission wavelengths of 485 nm and 535 nm, respectively. The acquisition time was 700 ms, and the read height was 1 mm. All experiments were performed in duplicate. […] In order to ensure robust fitting for some fits, r0 was kept constant at the value measured for the free tracer in buffer.
# circular dichroism = conditions: 10 mM phosphate; pH 7.5; 25 °C; 50 uM
# [2] = tested on: rHRSV-mCherry in HEp-2 cells; test: rHRSV-mCherry inhibition assay; assay type: cell-based, human respiratory syncytial virus; conditions: Table 3 (Ala scan); HEp-2 cells, rHRSV-mCherry MOI 0.2, 2-fold serial dilutions (11 dilutions), duplicate; ± SD of fit
# Procedure: To measure the inhibitory activity of the peptide, the mCherry red fluorescence was quantified 48 h postinfection (p.i.).
# Viral replication was quantified by measuring the mCherry fluorescence at 48 h p.i. and normalized based on the fluorescence of infected and untreated cells. (B) Cytotoxicity assay. HEp-2 cells were incubated in the presence of serial dilutions of peptides, and cell survival was quantified using the CellTiter-Glo Luminescent cell viability assay 24 h after the addition of the peptides. The signal was normalized based on the luminescence obtained for untreated cells. Error bars are standard deviations from duplicates.
# HEp-2 cells were seeded at 5 × 10^4 cells per well in a 96-well plate the day before the infection. Peptides were 2-fold serially diluted in dimethyl sulfoxide (DMSO) (11 dilutions) and then further diluted in EMEM without phenol red and preincubated for 15 to 20 min with rHRSV-mCherry ([24]) at a final dilution with an MOI of 0.2 ([24]). The cells were incubated with the virus-peptide mixtures for a period of 1.5 to 2 h. The medium was then replaced by EMEM without phenol red containing 2% fetal bovine serum and the same concentration of peptide as the one that was used during the infection step. Plates were incubated 48 h at 37°C, and the mCherry fluorescence was measured using a spectrofluorometer (Tecan infinite M200PRO) with excitation and emission wavelengths of 580 and 620 nm, respectively. Relative fluorescence was normalized by the fluorescence of nontreated infected cells. Noninfected HEp-2 cells were used as standards for fluorescence background levels. Each experiment was performed in duplicate and repeated at least twice. The resulting inhibition curves were fitted in Igor Pro as described above.
SMILES,Kd [1],helicity (circular dichroism),"competition with binding of fluorescently labeled T108 to recombinant 5HB (in words) ([1]; Ala-scan variants, FP)",EC50 [2]
CC[C@H](C)[C@H](NC(=O)[C@H](CCCCN)NC(=O)[C@H](CCC(=O)O)NC(=O)[C@H](CC(N)=O)NC(=O)[C@@H](NC(=O)[C@H](CCC(N)=O)NC(=O)[C@H](CO)NC(=O)[C@@H](NC(=O)[C@H](CO)NC(=O)[C@]1(C)CCCC=CCCC[C@](C)(NC(=O)[C@H](CO)NC(=O)[C@@H]2CCCN2C(=O)[C@H](Cc2ccccc2)NC(=O)[C@H](CCC(=O)O)NC(C)=O)C(=O)N[C@@H](CCC(=O)O)C(=O)N[C@@H](Cc2ccccc2)C(=O)N[C@@H](CC(=O)O)C(=O)N1)[C@@H](C)CC)C(C)C)C(=O)N[C@@H](CC(N)=O)C(N)=O [Peptide 1e] (Ac-EFPS[S5]EFD[S5]SISQVNEKIN-NH2; staple 5-9),15 ± 3 µM,35.5%,,
CC[C@H](C)[C@H](NC(=O)[C@H](Cc1ccccc1)NC(=O)[C@H](C)NC(=O)[C@H](CC(C)C)NC(=O)[C@H](CO)NC(=O)[C@H](CCC(N)=O)NC(=O)[C@H](CCC(=O)O)NC(C)=O)C(=O)N[C@@H](CCCNC(=N)N)C(=O)N[C@@H](CCCCN)C(=O)N[C@@H](CO)C(=O)N[C@@H](CC(=O)O)C(=O)N[C@@]1(C)CCCC=CCCC[C@@](C)(C(=O)N[C@H](C(N)=O)C(C)C)NC(=O)[C@H](Cc2c[nH]cn2)NC(=O)[C@H](CC(C)C)NC(=O)[C@H](CC(C)C)NC1=O [Peptide 3c] (Ac-EQSLAFIRKSD[S5]LLH[S5]V-NH2; staple 12-16),> 216 µM,18.7%,,
CC[C@H](C)[C@H](NC(=O)[C@H](Cc1ccccc1)NC(=O)[C@]1(C)CCCC=CCCCCCC[C@@](C)(NC(=O)[C@H](CC(N)=O)NC(=O)[C@@H](NC(=O)[C@H](CCC(N)=O)NC(=O)[C@H](CO)NC(=O)[C@@H](NC(=O)[C@H](CCC(=O)O)NC(C)=O)[C@@H](C)CC)C(C)C)C(=O)N[C@@H](CCCCN)C(=O)N[C@@H]([C@@H](C)CC)C(=O)N[C@@H](CC(N)=O)C(=O)N[C@@H](CCC(N)=O)C(=O)N[C@@H](CO)C(=O)N[C@@H](CC(C)C)C(=O)N1)C(=O)N[C@@H](CCCNC(=N)N)C(N)=O [Peptide 2e] (Ac-EISQVN[R8]KINQSL[S5]FIR-NH2; staple 7-14),76 ± 4 µM,27.4%,,
CC[C@H](C)[C@H](NC(=O)[C@H](CCCCN)NC(=O)[C@]1(C)CCCC=CCCC[C@](C)(NC(=O)[C@@H](NC(=O)[C@H](CO)NC(=O)[C@H](C)NC(=O)[C@H](CC(=O)O)NC(=O)[C@H](Cc2ccccc2)NC(=O)[C@H](CCC(=O)O)NC(=O)[C@H](CC(=O)O)NC(=O)[C@H](CO)NC(=O)[C@@H]2CCCN2C(=O)[C@H](Cc2ccccc2)NC(=O)[C@H](CCC(=O)O)NC(C)=O)[C@@H](C)CC)C(=O)N[C@@H](CCC(N)=O)C(=O)N[C@@H](C(C)C)C(=O)N[C@@H](CC(N)=O)C(=O)N1)C(=O)N[C@@H](CC(N)=O)C(N)=O [Peptide 1g] (Ac-EFPSDEFDASI[S5]QVN[S5]KIN-NH2; staple 12-16),191 ± 19 µM,46.8%,,
"CC[C@H](C)[C@H](NC(=O)[C@H](Cc1ccccc1)NC(=O)[C@]1(C)CCCC=CCCC[C@](C)(NC(=O)[C@@H](NC(=O)[C@H](CCCCN)NC(=O)[C@H](CCC(=O)O)NC(C)=O)[C@@H](C)CC)C(=O)N[C@@H](CCC(N)=O)C(=O)N[C@@H](CO)C(=O)N[C@@H](CC(C)C)C(=O)N1)C(=O)N[C@@]1(C)CCCC=CCCC[C@@](C)(C(=O)N[C@@H](CC(C)C)C(=O)N[C@@H](CC(C)C)C(=O)N[C@@H](Cc2c[nH]cn2)C(=O)N[C@@H](CC(N)=O)C(=O)N[C@H](C(N)=O)C(C)C)NC(=O)[C@H](CC(=O)O)NC(=O)[C@H](CO)NC(=O)[C@H](C)NC1=O [Peptide K508A] (Ac-EKI[S5]QSL[S5]FI[S5]ASD[S5]LLHNV-NH2; staple 4-8, 11-15)",,76%,none of these variants were able to compete,10.9 ± 13.9 µM
CC[C@H](C)[C@H](NC(=O)[C@H](Cc1ccccc1)NC(=O)[C@H](C)NC(=O)[C@H](CC(C)C)NC(=O)[C@H](CO)NC(=O)[C@]1(C)CCCC=CCCC[C@@](C)(NC(=O)[C@H](CCC(=O)O)NC(=O)[C@H](CC(N)=O)NC(=O)[C@@H](NC(=O)[C@H](CCC(N)=O)NC(=O)[C@H](CO)NC(=O)[C@@H](NC(=O)[C@H](CCC(=O)O)NC(C)=O)[C@@H](C)CC)C(C)C)C(=O)N[C@@H]([C@@H](C)CC)C(=O)N[C@@H](CC(N)=O)C(=O)N1)C(=O)N[C@@H](CCCNC(=N)N)C(N)=O [Peptide 2c] (Ac-EISQVNE[R5]IN[S5]SLAFIR-NH2; staple 8-11),125 ± 16 µM,13.8%,,
CC[C@H](C)[C@H](NC(=O)[C@H](CO)NC(=O)[C@H](C)NC(=O)[C@H](CC(=O)O)NC(=O)[C@H](Cc1ccccc1)NC(=O)[C@H](CCC(=O)O)NC(=O)[C@H](CC(=O)O)NC(=O)[C@H](CO)NC(=O)[C@@H]1CCCN1C(=O)[C@H](Cc1ccccc1)NC(=O)[C@H](CCC(=O)O)NC(C)=O)C(=O)N[C@]1(C)CCCCCCC=CCCC[C@@](C)(C(N)=O)NC(=O)[C@H]([C@@H](C)CC)NC(=O)[C@H](CCCCN)NC(=O)[C@H](CCC(=O)O)NC(=O)[C@H](CC(N)=O)NC(=O)[C@H](C(C)C)NC(=O)[C@H](CCC(N)=O)NC1=O [Peptide 1c] (Ac-EFPSDEFDASI[R8]QVNEKI[S5]-NH2; staple 12-19),221 ± 33 µM,24.5%,,
CC[C@H](C)[C@H](NC(=O)[C@H](Cc1ccccc1)NC(=O)[C@]1(C)CCCC=CCCC[C@](C)(NC(=O)[C@@H](NC(=O)[C@H](CCCCN)NC(=O)[C@H](CCC(=O)O)NC(=O)[C@H](CC(N)=O)NC(=O)[C@@H](NC(=O)[C@H](CCC(N)=O)NC(=O)[C@H](CO)NC(=O)[C@@H](NC(=O)[C@H](CCC(=O)O)NC(C)=O)[C@@H](C)CC)C(C)C)[C@@H](C)CC)C(=O)N[C@@H](CCC(N)=O)C(=O)N[C@@H](CO)C(=O)N[C@@H](CC(C)C)C(=O)N1)C(=O)N[C@@H](CCCNC(=N)N)C(N)=O [Peptide 2b] (Ac-EISQVNEKI[S5]QSL[S5]FIR-NH2; staple 10-14),369 ± 99 µM,35.8%,,
CC[C@H](C)[C@H](NC(=O)[C@H](Cc1ccccc1)NC(=O)[C@H](C)NC(=O)[C@H](CC(C)C)NC(=O)[C@H](CO)NC(=O)[C@H](CCC(N)=O)NC(=O)[C@H](CCC(=O)O)NC(C)=O)C(=O)N[C@@H](CCCNC(=N)N)C(=O)N[C@@H](CCCCN)C(=O)N[C@@H](CO)C(=O)N[C@@H](CC(=O)O)C(=O)N[C@@H](CCC(=O)O)C(=O)N[C@@H](CC(C)C)C(=O)N[C@@H](CC(C)C)C(=O)N[C@@H](Cc1c[nH]cn1)C(=O)N[C@@H](CC(N)=O)C(=O)N[C@H](C(N)=O)C(C)C [Peptide 3] (Ac-EQSLAFIRKSDELLHNV-NH2),> 10.8 µM,5.9%,,
